In patent US4056626A, “Pharmaceutical composition containing benzofuran derivative” (Kakenyaku Kako Co., Ltd., priority 1971, dated 1977):
Where two headings read alike, the source gives them in different places.

Columns and labels:
[1] = test system: isoproterenol antagonism concerning myocardial contractile force, heart rate and diastolic blood pressure; assay: isoproterenol antagonism in anesthetized dogs; assay type: in vivo; settings: for ED50: Canis lupus familiaris, iv; for Inhibition of decrease in diastolic blood pressure, relative activity / Inhibition of increase in heart rate, relative activity / Inhibition of increase in myocardial contractile force, relative activity: activity of Propranolol is 1
Procedure: Male and female dogs weighing 9 kg. to 20 kg. were employed. The dogs were anesthetized with barbital sodium (30 mg./kg.) given intraperitoneally. The compounds to be tested and isoproterenol were administered in femoral vein through a canula.
The maximum increase was adopted as the increase in myocardial contractile force. The increase after 1 minute from the administration of isoproterenol was adopted as the increase in heart rate. The maximum decrease was adopted as the decrease in diastolic blood pressure. Then, the compounds to be tested were administered in a dose of 0.01 to 100 μg./kg. After an interval of 2 minutes, isoproterenol was again administered in a dose of 0.3 μg./kg. After the second administration of isoproterenol, the maximum increase in myocardial contractile force, the increase after 1 minute from the administration of isoproterenol in heart rate and the maximum decrease in diastolic blood pressure were again determined.

in vivo = settings: mouse, iv
[2] = test system: isoproterenol antagonism concerning myocardial contractile force and heart rate in isolated guinea-pig atria; assay: isoproterenol antagonism in isolated guinea-pig atria; settings: for Inhibition of increase in heart rate ED 50 / Inhibition of increase in myocardial contractile force ED 50: 37° C., isoproterenol 1 × 10^-8 g./ml., 50% inhibition; for Inhibition of increase in heart rate, relative activity / Inhibition of increase in myocardial contractile force, relative activity: activity of Propranolol is 1
Procedure: Isolated guinea-pig atrium was mounted in a chamber containing Ringer-Lockesolution (37° C.), through which a mixed gas of 95% O2 and 5% CO2 was continuously bubbled. Isoproterenol was added to the solution at a concentration of 1 × 10^-^8 g./ml.

[3] = anesthetized dogs, femoral vein, isoproterenol 0.3 μg./kg., 50% inhibition, read-out: Inhibition of decrease in diastolic blood pressure ED50
[4] = anesthetized dogs, femoral vein, isoproterenol 0.3 μg./kg., 50% inhibition, read-out: Inhibition of increase in heart rate ED50
[5] = anesthetized dogs, femoral vein, isoproterenol 0.3 μg./kg., 50% inhibition, read-out: Inhibition of increase in myocardial contractile force ED50

| Compound | ED50 [1, 3] [µg/kg] | ED50 [1, 4] [µg/kg] | ED50 [1, 5] [µg/kg] | Inhibition of decrease in diastolic blood pressure, relative activity ([1]; anesthetized dogs) | Inhibition of increase in heart rate, relative activity ([1]; anesthetized dogs) | Inhibition of increase in myocardial contractile force, relative activity ([1]; anesthetized dogs) | LD50 at 24 h (in vivo) [µg/kg] | Inhibition of increase in heart rate ED 50 [2] [mg/L] | Inhibition of increase in myocardial contractile force ED 50 [2] [mg/L] | Inhibition of increase in heart rate, relative activity [2] | Inhibition of increase in myocardial contractile force, relative activity [2] | ED50 ([1]; read-out: Inhibition of decrease in diastolic blood pressure ED50) [µg/kg] | ED50 ([1]; read-out: Inhibition of increase in heart rate ED50) [µg/kg] | ED50 ([1]; read-out: Inhibition of increase in myocardial contractile force ED50) [µg/kg] |
| --- | --- | --- | --- | --- | --- | --- | --- | --- | --- | --- | --- | --- | --- | --- |
| CC(=O)c1cc2c(OCC(O)CNC(C)(C)C)cccc2o1 (stereo not drawn) [Compound No. 2, 2-acetyl-4-(2-hydroxy-3-tert.-butylaminopropoxy)benzofuran] | 0.92 | 35.2 | 8.62 | 1.0 | 0.3 | 1.1 | 35000 to 40000 | 0.045 | 0.017 | 2.2 | 0.6 |  |  |  |
| CCC(C)N=C(C)c1cc2c(OCC(O)CNC(C)CC)cccc2o1 (stereo not drawn) [Compound No. 10, 2-(1-sec.-butyliminoethyl)-4-(2-hydroxy-3-sec.-butylaminopropoxy)benzofuran] |  | 0.21 | 3.95 | 23.5 | 50.0 | 2.4 | 60000 to 65000 | 0.04 | 0.0059 | 2.5 | 1.7 |  |  |  |
| CC(=O)c1cc2cccc(OCC(O)CNC(C)C)c2o1 (stereo not drawn) [Compound No. 3, 2-acetyl-7-(2-hydroxy-3-isopropylaminopropoxy)benzofuran] | 0.18 | 0.52 | 3.4 | 5.3 | 21.0 | 2.8 | 100000 to 105000 | 0.04 | 0.005 | 2.5 | 2.0 |  |  |  |
| CCC(C)NCC(O)COc1cccc2cc(C(C)=O)oc12 (stereo not drawn) [Compound No. 7, 2-acetyl-7-(2-hydroxy-3-sec.-butylaminopropoxy)benzofuran] | 2.35 | 7.07 | 5.59 | 0.4 | 1.5 | 1.7 | 75000 to 80000 | 0.067 | 0.0048 | 1.5 | 2.0 |  |  |  |
| CC(=NC(C)C)c1cc2c(OCC(O)CNC(C)C)cccc2o1 (stereo not drawn) [Compound No. 6, 2-(1-isopropyliminoethyl)-4-(2-hydroxy-3-isopropylaminopropoxy)benzofuran] |  | 0.21 | 5.93 | 30.2 | 50.0 | 1.6 | 45000 to 50000 | 0.014 | 0.008 | 7.0 | 1.3 |  |  |  |
| CCc1cc2c(C(C)=O)ccc(OCC(O)CNC(C)C)c2o1 (stereo not drawn) [Compound No. 8, 2-ethyl-4-acetyl-7-(2-hydroxy-3-isopropylaminopropoxy)benzofuran] | 1.9 | 0.3 | 6.4 | 0.5 | 35.0 | 1.5 | 120000 to 125000 | 0.053 | 0.0091 | 1.9 | 1.1 |  |  |  |
| CC(C)NCC(O)COc1cccc2ccccc12 (stereo not drawn) [Propranolol, reference compound] |  |  |  |  |  |  |  |  |  |  |  | 0.94 | 10.6 | 9.5 |
| CCC(C)N=C(C)c1cc2cccc(OCC(O)CNC(C)CC)c2o1 (stereo not drawn) [Compound No. 9, 2-(1-sec.-butyliminoethyl)-7-(2-hydroxy-3-sec.-butylaminopropoxy)benzofuran] | 0.16 | 0.53 | 0.73 | 6.0 | 20.0 | 13.1 | 75000 to 80000 | 0.06 | 0.004 | 1.6 | 2.5 |  |  |  |
| CC(=NC(C)C)c1cc2cccc(OCC(O)CNC(C)C)c2o1 (stereo not drawn) [Compound No. 1, 2-(1-isopropyliminoethyl)-7-(2-hydroxy-3-isopropylaminopropoxy)benzofuran] | 0.3 | 0.42 | 0.6 | 3.1 | 25.0 | 15.9 | 65000 to 70000 | 0.014 | 0.0017 | 7.1 | 5.9 |  |  |  |
| CC(=O)c1cc2cccc(OCC(O)CNC(C)(C)C)c2o1 (stereo not drawn) [Compound No. 4, 2-acetyl-7-(2-hydroxy-3-tert.-butylaminopropoxy)benzofuran] | 0.72 | 3.5 | 6.33 | 1.3 | 3.0 | 1.5 | 45000 to 55000 | 0.033 | 0.004 | 3.0 | 2.5 |  |  |  |
| CCOC(=O)c1cc2cccc(OCC(O)CNC(C)C)c2o1 (stereo not drawn) [compound 5, 2-carbethoxy-7-(2-hydroxy-3-isopropylaminopropoxy)benzofuran] | 1.57 | 0.21 | 9.5 | 0.6 | 50.0 | 1.0 | 50000 to 55000 | 0.029 | 0.0055 | 3.5 | 1.8 |  |  |  |
